Where no end group is shown, it is not given here.
Columns and labels:
HIV-1 ADA = assay: MDLCs-mediated HIV-1 trans-infection to CD4+ T-cells; type: cell-based; conditions: for Inhibition of MDLCs-mediated HIV-1 trans-infection (in words): p24 ELISA or GFP-reporter T-cells by flow cytometry
Procedure: (§1) For langerin surface expression, MDLCs were washed and stained for 20 min on ice in a final volume of 50 µl PBS with a phycoerythrin (PE)-conjugated mouse monoclonal Ab against human langerin (clone DCGM4, Beckman Coulter), or matched isotype control. For HIV-1 trans-infection, MDLCs were washed and pulsed with HIV-1 ADA (1ng p24 corresponding to multiplicity of infection of 0.2) for 4 h. MDLCs were next incubated with autologous CD4+ T-cells or with green fluorescent protein (GFP)-reporter T-cells, and HIV-1 replication was measured in the co-culture supernatants using p24 ELISA (Fujirebio) or by evaluating GFP fluorescent by flow cytometry, as we described ([13]–[15]). Fluorescent profiles were acquired using a Guava easyCite and analyzed with the InCyte software (Merck-Millipore).
(§2) Data was analyzed using Prism software (GraphPad). Concentration-response curves were analyzed with the [log(agonist) vs. response (three parameters)] model for langrin upregulation and the [log(inhibitor) vs. normalized response − variable slope] model for HIV-1 trans-infection inhibition. The -log molar concentrations of agonists generating 50% response represented potencies (i.e., pEC50 and pIC50). Statistical significance was analyzed with the two-tailed Student’s t-test.
The cells were then pulsed with HIV-1 ADA for 4 h, washed, and incubated for 7 days with autologous CD4+ T-cells (A–C) or 3 days with HIV-1 GFP-reporter T-cells (D). HIV-1 trans-infection and replication in T-cells was evaluated by p24 ELISA in the co-culture supernatants or by GFP expression and flow cytometry.

[1] = test system: STAT4 expression in MDLCs; assay: STAT4 Western blot in MDLCs; type: cell-based, human; conditions: n = 4; for Total STAT4 expression: MDLCs treated 24 h, CGRP 0.1 μM, SAX 0.1 μM, CGRP1–8 10 μM, LPS 10 μg/ml, normalized to beta actin
Procedure: For PBMCs, cells (2 × 10^6/sample) were activated with PHA (5 μg/ml) + IL2 (100 U/ml) for 48 h at 37°C, serum-starved overnight, and stimulated for 30 min at 37°C with either IL12 (10 ng/ml; R&D systems) or interferon alpha (IFNα, 5 × 10^4 U/ml; pbl Assay Science). For MDLCs, cells (2 × 10^6/sample) were re-suspended in complete RPMI medium without cytokines and rested overnight at 37°C. […] The cells were then washed and stimulated for 30 min at 37°C with combination of IL12 + IFNα at the concentrations indicated above. PBMCs/MDLCs were subsequently lysed for 30 min on ice with 100 μl lysis buffer [50 mM Tris buffer pH = 7.5, 150 mM NaCl, 2 mM EDTA, 1% Triton X100, 0.1% SDS, 1:100 dilutions of phosphatase inhibitors II/III and protease inhibitor cocktail (Sigma)], followed by three cycles of 10 s vortex and 10 min incubation on ice. Lysates were centrifuged for 10 min at 4°C/13,200 rpm, and supernatants were collected and stored at −80°C. […] Blocking was performed for 1 h at room temperature with blocking buffer (Tris-buffered saline (TBS), 0.5% Tween 20, and 0.5% dry milk). The blots were next incubated overnight at 4°C with commercial rabbit polyclonal Abs suitable for WB, directed against human STAT4 (Proteintech #13028-1AP, 0.5 μg/ml) or phosphorylated STAT4 (pSTAT4; R&D systems, #AF4319, 1 μg/ml), followed by 1:1,000 dilution of HRP-conjugated donkey-anti-rabbit IgG Ab (Southern Biotech) for 1 h at room temperature. Loading control was verified by incubation with goat polyclonal Ab to beta actin (abcam, 0.4 μg/ml), followed by 1:5,000 dilution of HRP-conjugated donkey-anti-goat IgG Ab (Promega). All Abs were diluted in blocking buffer, and pre-stained SDS-PAGE standard markers (ThermoFisher) were applied to determine molecular weights. Revelation was performed for 1–10 s with ECL-Prime chemiluminescence detection kit (Amersham). Images were acquired with the Fusion FX camera platform (Vilber Lournmat) and protein expression was quantified with ImageJ software (NIH).
(A, B) PHA/IL2-activated PBMCs were serum-starved overnight at 37°C, and left untreated (Un) or stimulated for 30 min with either IL12 or IFNα. […] (F) MDLCs were treated as described in panels (C, D) above, and further stimulated for 30 min with combination of IL12 + IFNα.

[2] = test system: langerin surface expression in MDLCs; assay: Langerin surface expression in MDLCs (flow cytometry); type: cell-based, human
Procedure: as §1, §2
The cells were then stained for surface langerin and examined by flow cytometry.

[3] = cited from earlier work
Excerpt: However, CGRP-mediated vasodilation is potentially protective, at least during hypertension and cardiovascular complications ([5]).

[4] = test system: HIV-1 (V29)-infected PBMCs; assay: HIV-1 infection of dermal T-cells in inner foreskin tissue explants ex-vivo; type: cell-based; conditions: explants pre-treated 24 h at 1 μM, inoculated 4 h, further three days incubation; flow cytometry; n = 4
Procedure: For infection experiments, round (8 mm diameter) inner foreskin tissue pieces were placed in 24-well plates and incubated submerged for 24 h at 37°C with 1 ml complete RPMI medium, alone or supplemented with CGRP or SAX (1 μM, four explants per condition). The tissues were next washed, transferred to two-chamber transwell inserts (Sigma), and inoculated in a polarized manner for 4 h at 37°c with either non-infected or HIV-1 (V29)-infected PBMCs (in duplicates), as we described ([11], [12]).
Dermal cell suspensions were prepared following washing of the explants, additional incubation for three days at 37°C submerged in 1 ml fresh medium, and subsequent enzymatic digestion with collagenase/DNase as we described ([11], [12]). Pooled cells of each duplicate were surface stained as above using FITC-conjugated mouse-anti-human CD3 Ab (Pharmingen), fixed, permeabilized, and stained for 30 min at room temperature with 1:160 dilution of PE-conjugated mouse-anti-human Ab to HIV-1 p24 and core antigens (Beckman Coulter). Fluorescent profiles were recorded using a Guava easyCyte and InCyte software.
(D, E) Other explants were further incubated for additional three days and digested with collagenase/DNase. In panel (D), shown are representative flow cytometry dot plots of dermal cell suspensions double stained for surface CD3 and intracellular p24 and examined by flow cytometry. […]

## NCCCC[C@H](NC(=O)[C@@H](Cc1cc(Br)c(O)c(Br)c1)NC(=O)N1CCC(N2Cc3ccccc3NC2=O)CC1)C(=O)N1CCN(c2ccncc2)CC1 [BIBN4096]
HIV-1 ADA; BIBN4096 1 μM added 15 min before agonists (0.1 μM), n = 3
  Effect of antagonist on CGRP- and SAX-mediated inhibition of HIV-1 trans-infection: completely abrogated
[1]; BIBN4096 1 μM added 15 min before agonists (0.1 μM)
  Effect of antagonist on CGRP- and SAX-mediated increase in STAT4: abrogated
[2]; BIBN4096 1 μM added 15 min before agonists (0.1 μM), n = 4
  Effect of antagonist on CGRP- and SAX-mediated increase in langerin expression: completely abrogated

## CGRP1–8: previously described CGRP N-terminal fragment (ACDTATCV; not fully specified (bridges); ends and bridges not checked; UniProt P06881 83-90, looked up, fragment)
HIV-1 ADA; MDLCs treated 24 h
  Inhibition of MDLCs-mediated HIV-1 trans-infection (in words): lacks anti-HIV-1 inhibitory activity
[1]
  Total STAT4 expression: failed to increase
[2]; MDLCs treated 24 h, flow cytometry
  Increase in langerin surface expression (in words): fails to increase

## lipopolysaccharide [LPS]
[1]
  Total STAT4 expression: significantly increased

## serinyl-CGRP2-37-amide with an albumin binding fatty acid moiety in the N-terminus [SAX]
HIV-1 ADA; MDLCs treated 24 h, pulsed with HIV-1 ADA 4 h, 7 days with autologous CD4+ T-cells, p24 ELISA, -log molar, n = 5
  pIC50 [95% CI], inhibition of MDLCs-mediated HIV-1 trans-infection: 8.9 [9.9–7.9]
HIV-1 ADA; MDLCs treated 24 h
  Inhibition of MDLCs-mediated HIV-1 trans-infection (in words): significantly inhibited
HIV-1 ADA; blocking HIV-1 trans-infection in MDLCs
  Fold lower potency of SAX than CGRP: > 10 fold
[3]
  Half-life compared to CGRP: longer
[4]
  HIV-1 infection of dermal T-cells (p24+CD3+): undetectable levels
[1]
  Total STAT4 expression: significantly increased
[1]; after 24 h agonist treatment, 30 min IL12 + IFNα
  Phosphorylation of induced STAT4 (pSTAT4) upon cytokine stimulation: could be readily phosphorylated
[2]; MDLCs treated 24 h, flow cytometry, -log molar, n = 5
  pEC50 [95% CI], increase in langerin surface expression: 8.3 [9.6–6.5]

— paper PMC8692891 (Frontiers in Immunology, 2021)
